The values below come from patent US20020026945A1, “Enhancement of photodynamic therapy by anti-angiogenic treatment” (priority 2000, published 2002).

Data set [1] relates to BA mammary carcinomas. Put plainly: In-vivo PDT tumor treatment, tumor cures. The settings on record: for tumor cures or tumor regression / tumor growth parameters: anti-angiogenic treatment alone, daily IP for 10 days, no PDT; for tumor cures: single PDT (PH 5 mg/kg, 200 J/cm^2) plus daily IP injections for 10 days (EMAP-II 50 μg/kg, IM862 25 mg/kg), disease free at least 40 days. Details: species or system C3H/HeJ mice. Here is the method:
BA mouse mammary carcinoma cells (originally obtained from the NIH tumor bank) were used in all in-vitro and in-vivo experiments (17). Cells were grown as a monolayer in RPMI 1640 media supplemented with 10% fetal calf serum (FCS) and antibiotics. The plating efficiency for the BA cells ranged from 40-60%. Subcutaneous BA mammary carcinomas were generated by trocar injection of 1-mm^3 pieces of tumor to the hind right flank of 8-12 week old female C3H/HeJ mice (17).
In-vivo photodynamic therapy tumor treatments were performed as previously reported on tumors measuring 6-7 mm in diameter (17). Briefly, photodynamic therapy procedures included an i.v. injection of PH (5 mg/kg) followed 24 h later with non-thermal laser tumor irradiation using an argon pumped dye laser emitting red light at 630 nm. A light dose rate of 75 mW/cm^2 and a total light dose of 200 J/cm^2 were used for all in-vivo PDT treatments. Following treatment, tumors were measured 3 times per week. Cures were defined as being disease free for at least 40 days following photodynamic therapy (17). Anti-angiogenic treatment was performed using either EMAP-II or IM862. Each compound was administered as daily IP injections for 10 consecutive days starting 1 h prior to photodynamic therapy light treatment. Individual IM862 doses were 25 mg/kg and individual EMAP-II doses were 50 μg/kg. Tumor tissue hypoxia was induced in selected experiments by clamping lesions for 45 minutes. Statistical analysis was performed using the X^2 test for evaluation of tumor cure rates.
A photodynamic therapy procedure, which produced a moderate cure rate alone, was used to measure positive or negative changes in tumor response when a single photodynamic therapy treatment was combined with daily injections of EMAP-II or IM862 for 10 days (17).

Data set [2] concerns VEGF. Description: VEGF ELISA of tumor extracts after PDT. The format is in vivo, mouse. The settings on record: PDT plus 2 doses of agent versus PDT alone; tumors collected 24 hr after PDT. As for the experimental part:
Tumor bearing mice received either no treatment (Control), photodynamic therapy alone, or photodynamic therapy plus 2 injections of either EMAP-II or IM862 (1 hr prior to photodynamic therapy and 23 hr after photodynamic therapy). Tumor samples were collected 24 hr after PDT and assayed for VEGF expression using a commercial ELISA assay kit. Each group represents the mean ± SE of 6 individual tumor samples.
(§1) In-vivo photodynamic therapy tumor treatments were performed as previously reported on tumors measuring 6-7 mm in diameter (17). Briefly, photodynamic therapy procedures included an i.v. injection of PH (5 mg/kg) followed 24 h later with non-thermal laser tumor irradiation using an argon pumped dye laser emitting red light at 630 nm. A light dose rate of 75 mW/cm^2 and a total light dose of 200 J/cm^2 were used for all in-vivo PDT treatments. Following treatment, tumors were measured 3 times per week. Cures were defined as being disease free for at least 40 days following photodynamic therapy (17). Anti-angiogenic treatment was performed using either EMAP-II or IM862. […]
A Quantikine M mouse VEGF ELISA kit (R&D Systems, Minneapolis, Minn.) was used to quantify VEGF levels in cell culture media as well as in tumor extracts from control and treated mice. […]
The effects of the anti-angiogenic derivatives on photodynamic therapy induced VEGF levels were analyzed in the treated tumors. […]

The subject of data set [3] is angiogenesis. The settings on record: preclinical studies; cited from earlier work.
The test system of data set [4] is VEGF. The settings on record: preclinical studies; cited from earlier work.
In data set [5] the test system is xenograft models. The settings on record: in vivo; cited from earlier work.
Data set [6] deals with AIDS associated Kaposi's sarcoma. The settings on record: intranasal administration; reference 16; cited from earlier work.
The test system of data set [7] is tumor cells. The settings on record: cited from earlier work.
For data set [8] the following is noted: in vivo; cited from earlier work.
The test system of data set [9] is HIF-1α. Put plainly: Western immunoblot of HIF-1α in treated tumors. The format is in vivo, C3H mice. Here is the method:
(§2) In FIG. 1A, tumors were collected immediately following treatment and evaluated for HIF-1α expression by Western immunoblot analysis. HIF-1α was not detectable in control tumors measuring 6-7 mm in diameter. […] In FIG. 1B, separate tumors were collected 24 hr after photodynamic therapy or clamping (45 min) and assayed for VEGF expression by Western immunoblot analysis. Expression of actin was used to monitor protein loading.
as §1
(§3) Tumors were collected at various times after treatment, homogenized with a polytron in 1X reporter lysis buffer (Promega, Wis.) and evaluated for protein expression as described previously (18). […]
(A western blot detects proteins with antibodies after separation by electrophoresis.)

In data set [10] the test system is VEGF. Put plainly: Western immunoblot of VEGF in treated tumors. Details: species or system C3H mice. The settings on record: tumor lysates collected 24 hours after in-vivo PDT. As for the experimental part:
as §2, §1, §3

Data set [11] relates to VEGF. Put plainly: VEGF ELISA of culture media of BA mammary carcinoma cells. The format is cell-based, mouse. The settings on record: in-vitro PDT, PH 25 μg/ml, 210 J/m^2, measured 24 hr after treatment. (In general: An ELISA detects its analyte on a solid surface through an enzyme-linked reagent.)
Data set [12] concerns tumor growth. The settings on record: reference 15; cited from earlier work.
For data set [13], the system named is growing capillary endothelial cells. The settings on record: time and dose dependent; reference 15; cited from earlier work.
Data set [14] has as its system vessel ingrowth. The settings on record: experimental angiogenesis models and primary tumors; cited from earlier work.
The conditions of data set [15]: in vivo; cited from earlier work. The source holds these as a separate data set.

Residues, ends and D or L forms follow the SMILES beside them.

Turning to `N[C@@H](CCC(=O)O)C(=O)N[C@@H](Cc1c[nH]c2ccccc12)C(=O)O` [IM862, L-glutamyl-L-tryptophan] (H-Glu-Trp-OH), in [1], the “tumor cures or tumor regression” value was “did not produce any tumor cures or tumor regression”, the tumor growth parameters entry was “only slightly modified tumor growth parameters” and the tumor cures was 78%. In [2], the “VEGF levels in PDT treated tumors (ELISA)” value is “decrease in VEGF levels”. In addition, in data set [3], the “angiogenesis in chorioallantoic membrane assays” value was “inhibits angiogenesis”. The “VEGF production in monocytic lineage cells” value in [4] is on record as “inhibits VEGF production”. The “tumor growth in xenograft models” value in data set [5] was “inhibits tumor growth”. For the same molecule, the “antitumor activity in patients” value in [6] is “exhibits antitumor activity”. In addition, the “direct cytotoxic effect on tumor cells” value in data set [7] was “no direct cytotoxic effect”. In addition, in data set [8], the safety and tolerability result was “safe and well tolerated”.
The molecule Photofrin porfimer sodium yielded a cure rate in data set [1] (photodynamic therapy alone (PH 5 mg/kg i.v., 630 nm, 200 J/cm^2), cure = disease free for at least 40 days) of 39%. In [9] (PDT (PH 5 mg/kg; 200 J/cm^2), tumors collected immediately following treatment), the “HIF-1α expression (Western)” value is listed as “induced HIF-1α expression”. Further, in data set [9] (PDT of BA tumors in C3H mice), the “time after photodynamic therapy at which HIF-1α expression is observed” value was at most 5 min. Further, the “VEGF expression within treated lesions (Western)” value in [10] is reported as “induced significant increases in VEGF expression”. For the same molecule, in [11], the “VEGF levels in culture media” value is “modestly increase in VEGF levels”.

B1: EMAP-II: recombinant single chain polypeptide which inhibits tumor growth and has anti-angiogenic activity (protein, UniProt Q12904 147-312, looked up)
Endothelial …: SKPIDVSRLDLRIGCIITARKHPDADSLYVEEVDVGEIAPRTVVSGLVNHVPLEQMQNRMVILLCNLKPAKMRGVLSQAMVMCASSPEKIEILAPPNGSVPGDRITFDAFPGEPDKELNPKKKIWEQIQPDLHTNDECVATYKGVPFEVKGKGVCRAQTMSNSGIK
modifications: Endothelial monocyte-activating polypeptide 2
In the case of B1, in data set [1], the “tumor cures or tumor regression” value is reported as “did not produce any tumor cures or tumor regression”, the tumor growth parameters entry was “only slightly modified tumor growth parameters” and the tumor cures turned out to be 89%. Moreover, the “VEGF levels in PDT treated tumors (ELISA)” value in data set [2] is on record as “statistically significant decrease”. The tumor growth result in data set [12] is reported as “inhibits tumor growth”. Also, the “apoptosis in growing capillary endothelial cells” value in data set [13] was “induces apoptosis”. In addition, the vessel ingrowth result in [14] is reported as “prevents vessel ingrowth”. Further, the “toxicity in normal organs” value in data set [15] was “does not induce toxicity”.
